The text below walks through data of patent US11401279B2, “Pyrido[3,2-d]pyrimidine compounds as immunomodulators” (Incyte Corporation, priority 2019, dated 2022).

For series [1], the system named is U2OS/PD-L1 cells and Jurkat-PD-1-SHP cells. The series can be described thus: Src homology region 2 domain-containing phosphatase (SHP) assay. Type of series: cell-based. To be noted: Homo sapiens, U2OS; PathHunter chemiluminescence, 2 hours. As for the experimental part:
U2OS/PD-L1 cells (DiscoveRx Corporation) were maintained in McCoy's 5A medium with addition of 10% FBS, 0.25 μg/mL Puromycin. After removing the culture media, the cell medium was replaced with assay medium (RPMI1640 medium with 1% FBS). The U2OS/PD-L1 cells were then added in 384-well black clear bottom assay plate (CELLCOAT® Tissue Culture Plates, Greiner Bio-One) at 5000 cells per well in 20 μL assay medium. Test compounds were prepared by serial dilution in DMSO and 125 nL compound were first transferred to the 384 REMP plate well (Thermofisher) by ECHO liquid handler (Labcyte) followed with addition of 27.5 μL assay medium. 5 µL/well compounds in the assay medium were transferred to the cell plate with 0.05% DMSO in the final assay at 0.25 μM. Jurkat-PD-1-SHP cells (DiscoveRx Corporation) were cultured in RPMI1640 medium supplemented with 10% FBS, 250 μg/mL Hygromycin B, 500 μg/mL G418. After the replacement of culture media with assay medium, 5,000 Jurkat-PD-1-SHP cells in 20 μL were dispensed into each well. The assay plate was incubated at 37° C., 5% CO2 for 2 hours before 2.5 μL PathHunter reagent 1 (DiscoveRx Corporation) were added to each well. The assay plate was shaken for 1 min at 350 rpm in the dark followed with addition of 10 μL PathHunter reagent 2 (DiscoveRx Corporation). Chemiluminescent signal was recorded with TopCount reader (Perkin Elmer) after incubation at room temperature for 1 hour. Wells with DMSO were served as the positive controls and wells containing no cells were used as negative controls. IC50 determination was performed by fitting the curve of percentage of control activity versus the log of the compound concentration using the GraphPad Prism 6.0 software.

Series [2] deals with PD-1/PD-L1 (Homo sapiens (Human), UniProt Q9NZQ7). The series can be described thus: Homogeneous Time-Resolved Fluorescence (HTRF) PD-1/PD-L1 binding assay. The settings on record: recombinant human PD-1 and PD-L1. As to the method:
The assays were conducted in a standard black 384-well polystyrene plate with a final volume of 20 μL. Inhibitors were first serially diluted in DMSO and then added to the plate wells before the addition of other reaction components. The final concentration of DMSO in the assay was 1%. The assays were carried out at 25° C. in the PBS buffer (pH 7.4) with 0.05% Tween-20 and 0.1% BSA. Recombinant human PD-L1 protein (19-238) with a His-tag at the C-terminus was purchased from AcroBiosystems (PD1-H5229). Recombinant human PD-1 protein (25-167) with Fc tag at the C-terminus was also purchased from AcroBiosystems (PD1-H5257). PD-L1 and PD-1 proteins were diluted in the assay buffer and 10 μL was added to the plate well. Plates were centrifuged and proteins were preincubated with inhibitors for 40 minutes. The incubation was followed by the addition of 10 μL of HTRF detection buffer supplemented with Europium cryptate-labeled anti-human IgG (PerkinElmer-AD0212) specific for Fc and anti-His antibody conjugated to SureLight®-Allophycocyanin (APC, PerkinElmer-AD0059H). After centrifugation, the plate was incubated at 25° C. for 60 min. before reading on a PHERAstar FS plate reader (665 nm/620 nm ratio). Final concentrations in the assay were—3 nM PD1, 10 nM PD-L1, 1 nM europium anti-human IgG and 20 nM anti-His-Allophycocyanin. IC50 determination was performed by fitting the curve of percent control activity versus the log of the inhibitor concentration using the GraphPad Prism 5.0 software.

Series [3] deals with PD-L1 (Homo sapiens (Human), UniProt Q9NZQ7). The series can be described thus: PD-L1 whole blood internalization assay. The settings on record: PD-L1 internalization in human whole blood, CD14+ cells, interferon γ, 24 hour. Type of series: cell-based. As for the experimental part:
To determine PD-L1 internalization in human whole blood, normal human blood (Biological Specialty Corp, Colmar. Pa.) was incubated in the presence or absence of a concentration range of test compounds and 1 ng/mL human interferon γ (R&D Systems Inc. Minn. […] Blood was then stained with PD-L1 (MIH1, eBioscience; or BD Biosciences San Jose, Calif.), CD14 (Life Technologies, Carlsbad, Calif.) for 30 minutes in the dark at room temperature. Whole Blood/red cells were lysed/fixed (lysis buffer BD Biosciences) for 5 minutes at 37° C. in the dark and then centrifuged at 1600 RPM for 5 minutes. Cells were resuspended in Stain Buffer (BD Bioscience, San Jose, Calif.) and transferred into 96 well round bottom plates (Corning). Cells were gated on CD14+(BD Biosciences) and PD-L1 expression determined by mean fluorescence intensity (MFI) (BD LSRFortessa™ X-20). IC50 determination was performed by fitting the curve of compound percent inhibition versus the log of the compound concentration using the GraphPad Prism 7.0 software.

The test system of series [4] is PD-L1 aAPC/CHO-K1 cells and Jurkat-PD-1-NFAT effector cells. The series can be described thus: Nuclear factor of activated T-cells (NFAT) assay. The class given is cell-based. To be noted: Cricetulus griseus, CHO-K1; luminescence, 24 hours. As for the experimental part:
PD-L1 aAPC/CHO-Klcells (Promega) were maintained in F-12 medium with addition of 10% FBS, 200 μg/mL Hygromycin B, 250 μg/mL Geneticin (G418). Jurkat-PD-1-NFAT effector cells (Promega) were cultured in RPMI 1640 medium supplemented with 10% FBS, 100 μg/mL Hygromycin B, 500 μg/mL G418. The culture media of PD-L1 aAPC/CHO-K1 cells were first replaced with assay medium (RPMI1640 medium with 1% FBS). The PD-L1 aAPC/CHO-Klcells were then added in a white 384-well white clear bottom assay plate (CELLCOAT® Tissue Culture Plates, Greiner Bio-One) at 8000 per well in 10 μL assay medium. Test compounds were prepared by serial dilution in DMSO and 0.8 μL test compounds in DMSO were first transferred to the 384 REMP plate well (Thermofisher) by PlateMate Plus (Thermofisher) followed with addition of 50 μL plating medium. 5 μL compounds in the assay medium were transferred to the cells with 0.4% DMSO in the final assay at 2 μM. After removing the culture media, 10,000 Jurkat-PD-1-NFAT effector cells in 5 μL assay medium was dispensed into each well. The assay plate was incubated at 37° C., 5% CO2 for 24 hours. After the assay plate was equilibrated to room temp for 15 minutes, 20 μL/well of Bio-Glo™ reagent (Promega) were added. After 8 minutes incubation at room temperature, luminescence was read at with Pherastar microplate reader (BMG Labtech). The fold of induction (FOI) was calculated based on the ratio of luminescence normalized to the DMSO wells within each assay plate. The maximum percentage of induction was reported based on the ratio between the highest FOI of each compound and the maximum FOI of control compound within each assay plate. Wells with DMSO were served as the negative controls and wells containing control compound with the highest FOI were used as positive controls. EC50 determination was performed by fitting the curve of percent control activity versus the log of the compound concentration using the GraphPad Prism 6.0 software.

Series [5] is described as follows: In vivo pharmacokinetics in rats. Further details: species or system Sprague Dawley rats. To be noted: rat, cassette dosing; for clearance / half-life / Vd / Cmax / AUC(0-inf): male, Sprague-Dawley, plasma; for clearance / half-life / Vd: 1.0 mg/kg IV; for Vd: read-out: Vss; for Cmax / AUC(0-inf) / F: 3.0 mg/kg PO; for AUC(0-inf): read-out: AUC0-inf. As for the experimental part: For in vivo pharmacokinetic experiments, test compounds were administered to male Sprague Dawley rats or male and female Cynomolgus monkeys intravenously or via oral gavage. For intravenous (IV) dosing, test compounds were dosed at 0.5 to 1 mg/kg using a formulation of 10% dimethylacetamide (DMAC) in acidified saline via IV bolus for rat and 5 min or 10 min IV infusion for monkey. For oral (PO) dosing, test compounds were dosed at 1.0 to 3.0 mg/kg using 5% DMAC in 0.5% methylcellulose in citrate buffer (pH 3.5). Blood samples were collected at predose and various time points up to 24 hours postdose. All blood samples were collected using EDTA as the anticoagulant and centrifuged to obtain plasma samples. The plasma concentrations of test compounds were determined by LC-MS methods. The measured plasma concentrations were used to calculate PK parameters by standard noncompartmental methods using Phoenix® WinNonlin software program (version 7.0, Pharsight Corporation).
In rats and monkeys, cassette dosing of test compounds were conducted to obtain preliminary PK parameters.

Sequence of PD-1/PD-L1 (Q9NZQ7 19-238): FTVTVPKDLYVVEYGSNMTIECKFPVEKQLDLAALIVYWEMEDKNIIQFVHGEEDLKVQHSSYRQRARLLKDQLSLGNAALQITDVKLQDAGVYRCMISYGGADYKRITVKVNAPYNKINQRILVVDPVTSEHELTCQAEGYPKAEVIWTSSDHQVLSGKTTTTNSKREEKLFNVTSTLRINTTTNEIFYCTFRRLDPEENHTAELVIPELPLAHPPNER
Sequence of PD-L1 (Q9NZQ7 19-290): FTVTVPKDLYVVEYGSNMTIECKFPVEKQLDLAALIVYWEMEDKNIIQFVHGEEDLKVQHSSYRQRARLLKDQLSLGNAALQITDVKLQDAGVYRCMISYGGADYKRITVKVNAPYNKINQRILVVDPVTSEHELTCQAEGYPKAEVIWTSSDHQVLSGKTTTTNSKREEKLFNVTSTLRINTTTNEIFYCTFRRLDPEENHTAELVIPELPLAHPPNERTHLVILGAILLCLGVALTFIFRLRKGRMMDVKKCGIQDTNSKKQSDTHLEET

In the case of `Cc1c(NC(=O)c2nc3c(n2C)CCN(CCC24CCC(C(=O)O)(CC2)C4)C3)cccc1-c1cccc(Nc2nc(C(F)F)nc3cc(CN4CC[C@](C)(O)C4)cnc23)c1C` [Example 16, (S)-4-(2-(2-((3′-((2-(difluoromethyl)-7-((3-hydroxy-3-methylpyrrolidin-1-yl)methyl)pyrido[3,2-d]pyrimidin-4-yl)amino)-2,2′-dimethyl-[1,1′-biphenyl]-3-yl)carbamoyl)-1-methyl-1,4,6,7-tetrahydro-5H-imidazo[4,5-c]pyridin-5-yl)ethyl)bicyclo[2.2.1]heptane-1-carboxylic Acid], the concentration for half-maximal inhibition (IC50) in series [1] was found to be 2.4 nM; in series [2] it was 1.7 nM; in series [3], 53 nM. The compound also had an EC50 in series [4] of 6 nM.

In series [1], `CN1CCc2c(nc(C(=O)Nc3cccc(-c4cccc(NC(=O)c5nc6c(n5C)CCN(CC57CCC(C(=O)O)(CC5)C7)C6)c4Cl)c3Cl)n2C)C1` [Example 84] yielded an IC50 of 6.9 nM. In addition, in series [5], the clearance is 16.5 mL/min/kg, the half-life is 3.47 h, the Vd turned out to be 2.45 L/kg and the peak concentration (Cmax) worked out at 234 nM. For the same compound, in series [5], the AUC(0-inf) was 1.2 µM·h and the F was 28%. Besides, the IC50 in series [2] stood at 8.3 nM. Besides, in series [3], the IC50 came to 97 nM. In addition, it took 47 nM to reach a half-maximal effect in series [4] (EC50).

With `Cc1c(NC(=O)c2nc3c(n2C)CCN(CC24CCC(C(=O)O)(CC2)C4)C3)cccc1-c1cccc(NC(=O)c2nc3c(n2C)CCN(C)C3)c1Cl` [Example 102], in series [1], the IC50 is 4.9 nM. Further, in series [5], the clearance was 19 mL/min/kg, the half-life is 1.9 h, the Vd came out at 1.96 L/kg and the highest level (Cmax) was 398 nM. Moreover, in series [5], the AUC(0-inf) is 1.5 µM·h and the F was determined as 39%. Further, in series [2], the IC50 was 2.4 nM. For the same compound, the IC50 in series [3] turned out to be 149 nM. The compound further showed an EC50 in series [4] of 76 nM.

In the case of `Cc1c(NC(=O)c2nc3c(n2C)CCN(C)C3)cccc1-c1cccc(NC(=O)c2nc3c(n2C)CCN(CC24CCC(C(=O)O)(CC2)C4)C3)c1Cl` [Example 119, reference compound], the results for the IC50 in series [1], in series [2] and in series [3] were 4.9 nM, 3.4 nM and 178 nM, respectively. Further, a half-maximal effect in series [4] (EC50) was put at 82 nM.

As for `CCN1CCc2c(nc(C(=O)Nc3cccc(-c4cccc(NC(=O)c5nc6c(n5C)CCN(CC57CCC(C(=O)O)(CC5)C7)C6)c4Cl)c3Cl)n2C)C1` [Example 176, reference compound], the IC50 in series [1] was 17 nM; in series [2], 2.9 nM; in series [3], 732 nM. This compound also returned an EC50 in series [4] of 122 nM.

On to `CC(C)N1CCc2c(nc(C(=O)Nc3cccc(-c4cccc(NC(=O)c5nc6c(n5C)CCN(CC57CCC(C(=O)O)(CC5)C7)C6)c4Cl)c3Cl)n2C)C1` [Example 177, reference compound], for which the concentration for half-maximal inhibition (IC50) came out at 5.7 nM in series [1], 1.5 nM in series [2] and 185 nM in series [3]. This compound also registered an EC50 in series [4] of 31 nM.

On to `Cn1c(C(=O)Nc2cccc(-c3cccc(NC(=O)c4nc5c(n4C)CCN(C4CCC4)C5)c3Cl)c2Cl)nc2c1CCN(CC13CCC(C(=O)O)(CC1)C3)C2` [Example 178, reference compound], for which the IC50 in series [1] turned out to be 13 nM; in series [2] it was 1.9 nM; in series [3], 587 nM. The compound also displayed an EC50 in series [4] of 82 nM.

Consider `C[C@H](O)CN1CCc2c(nc(C(=O)Nc3cccc(-c4cccc(NC(=O)c5nc6c(n5C)CCN(CC57CCC(C(=O)O)(CC5)C7)C6)c4Cl)c3Cl)n2C)C1` [Example 181, reference compound], for which the figures for the IC50 in series [1], in series [2] and in series [3] were 6.1 nM, 1.6 nM and 161 nM, respectively. In addition, the EC50 in series [4] stood at 41 nM.

Take `C[C@@H](O)CN1CCc2c(nc(C(=O)Nc3cccc(-c4cccc(NC(=O)c5nc6c(n5C)CCN(CC57CCC(C(=O)O)(CC5)C7)C6)c4Cl)c3Cl)n2C)C1` [Example 182, reference compound]: the IC50 in series [1] turned out to be 4.4 nM; in series [2], 1.7 nM; in series [3], 92 nM. A half-maximal response in series [4] (EC50) required 30 nM.

`Cn1c(C(=O)Nc2cccc(-c3cccc(NC(=O)c4nc5c(n4C)CCN(C4CCC(O)CC4)C5)c3Cl)c2Cl)nc2c1CCN(CC13CCC(C(=O)O)(CC1)C3)C2` (stereo not shown) [Example 183, reference compound]: the figures for the IC50 in series [1], in series [2] and in series [3] were 5.6 nM, 1.8 nM and 49 nM, respectively. Besides, in series [4], the EC50 worked out at 18 nM.
